Consider twelve compounds from patent publication US9932331B2, “Phenyl tetrahydroisoquinoline compound substituted with heteroaryl” (TAISHO PHARMACEUTICAL CO., LTD, priority 2014, dated 2018).

Where a name gives a salt, the structure may show the parent alone.

The test deals with T1, human NHE3 (Homo sapiens, UniProt P48764).
T1 sequence (P48764 26-834): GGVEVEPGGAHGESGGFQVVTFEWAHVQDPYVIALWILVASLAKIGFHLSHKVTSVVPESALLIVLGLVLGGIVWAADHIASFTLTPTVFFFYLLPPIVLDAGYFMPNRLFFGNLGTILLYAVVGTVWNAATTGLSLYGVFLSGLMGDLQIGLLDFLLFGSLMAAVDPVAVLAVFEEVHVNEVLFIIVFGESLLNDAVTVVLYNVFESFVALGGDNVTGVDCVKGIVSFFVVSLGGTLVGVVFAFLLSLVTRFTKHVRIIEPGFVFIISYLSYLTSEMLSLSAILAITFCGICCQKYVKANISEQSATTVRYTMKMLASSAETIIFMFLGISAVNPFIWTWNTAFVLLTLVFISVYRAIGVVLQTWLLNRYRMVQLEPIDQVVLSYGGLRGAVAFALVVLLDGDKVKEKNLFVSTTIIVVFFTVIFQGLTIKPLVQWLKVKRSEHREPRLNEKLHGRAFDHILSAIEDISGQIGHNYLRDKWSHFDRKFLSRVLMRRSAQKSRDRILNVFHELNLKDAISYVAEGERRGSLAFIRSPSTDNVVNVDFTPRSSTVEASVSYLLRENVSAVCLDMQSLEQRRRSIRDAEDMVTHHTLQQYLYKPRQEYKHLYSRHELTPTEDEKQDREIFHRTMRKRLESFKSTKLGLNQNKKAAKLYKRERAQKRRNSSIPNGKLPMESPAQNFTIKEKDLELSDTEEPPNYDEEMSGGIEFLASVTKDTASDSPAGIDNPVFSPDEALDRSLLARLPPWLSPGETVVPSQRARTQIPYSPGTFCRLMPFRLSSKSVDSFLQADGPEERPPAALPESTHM
Put plainly: NHE3 inhibition test (recovery of intracellular pH in cell line stably expressing human NHE3). In kind it is cell-based. Conditions: OK cells deficient in endogenous NHE stably expressing human NHE3; BCECF fluorescence, initial rate of pH recovery; read-out: human NHE3 inhibitory activity IC50. The protocol: (1) Preparation of Cell Line Deficient in Endogenous NHE
The cell line deficient in endogenous NHE was prepared according to the method of Jacques Pouyssegur et al. (Proc. Natl. Acad. Sci. USA. 1984, Vol. 81, 4833-4837) using opossum kidney (OK) cells (ATCC).
(2) Preparation of Expression Plasmid and Cell Line Stably Expressing Human NHE3
The expression plasmid was constructed by inserting a human NHE3 (SLC9A3, Accession No. NM_004174) cDNA sequence (GeneCopoeia, Inc.) into a pcDNA3.2/V5-DEST vector (Life Technologies Corp.).
The OK cells deficient in endogenous NHE were transfected with the constructed human NHE3 expression plasmid to prepare stably expressing cells. The transfection was carried out by electroporation using a Nucleofector 2b device (Lonza Group Ltd.). A stably expressing cell line was selected in medium supplemented with 500 μg/mL Geneticin (Life Technologies Corp.) and isolated.
NHE3 activity measurement method using cell: The activity was determined by using the NHE3-mediated recovery of intracellular pH occurring after intracellular acidification, as an index. The intracellular pH was measured by a partial modification of the pH-sensitive fluorescent indicator method reported by Tsien et al. (Proc. Natl. Acad. Sci. USA., 1984, 81, 7436-7440).
The cell line stably expressing human NHE3 was inoculated on a poly-D-lysine-coated 96-well plate (Greiner Bio-one) and cultured overnight. […] Then, Hank's balanced salt buffer solution containing 0.25 μM BCECF-AM (Dojindo Laboratories) was added to the cells, which were then incubated at 37° C. for 30 minutes. […] The cells thus incubated in the NH4Cl buffer solution were washed with NH4Cl-free buffer solution (133.8 mM choline chloride, […], 5 mM glucose, 4.7 mM KCl, 1.25 mM CaCl2, 1.25 mM MgCl2, 0.97 mM K2HPO4, 0.23 mM KH2PO4, pH 7.4) to decrease the intracellular pH. After the washing step, 70 μL of a test compound solution prepared with the NH4Cl-free buffer solution was added to the cells, and 70 iμL of sodium ion-containing buffer solution (133.8 mM NaCl, 10 mM HEPES, 5 mM glucose, 4.7 mM KCl, 1.25 mM CaCl2, 1.25 mM MgCl2, 0.97 mM Na2HPO4, 0.23 mM NaH2PO4, pH 7.4) was added thereto in a measurement system FDSS6000 (Hamamatsu Photonics K.K.) to start the recovery of pH. The recovery of intracellular pH was monitored using BCECF fluorescence (excitation wavelength: 480 nm, fluorescence wavelength: 520 to 560 nm), and the initial rate of the pH recovery was plotted. The recovery of pH without test compound was defined as the maximum recovery, and the test compound concentration necessary to inhibit 50% of the maximum recovery was calculated as an IC50 value.
Turning to `CN1Cc2c(Cl)cc(Cl)cc2[C@H](c2cccc(-c3cc(OCCOCCOCCNC(=O)NCCCCNC(=O)NCCOCCOCCOc4cc(-c5cccc([C@@H]6CN(C)Cc7c(Cl)cc(Cl)cc76)c5)ncn4)ncn3)c2)C1` [Example 7-12, 1,1′-Butane-1,4-diylbis {3-[2-(2-{2-[(6-{3-[(4S)-6,8-dichloro-2-methyl-1,2,3,4-tetrahydroisoquinolin-4-yl]phenyl}pyrimidin-4-yl)oxy]ethoxy}ethoxy)ethyl]urea} tetrahydrochloride], the IC50 worked out at 7.5 nM.

As to `CN1Cc2c(Cl)cc(Cl)cc2[C@H](c2cccc(-c3cnnc(NCCOCCOCCNC(=O)NCCCCNC(=O)NCCOCCOCCNc4cc(-c5cccc([C@@H]6CN(C)Cc7c(Cl)cc(Cl)cc76)c5)cnn4)c3)c2)C1` [Example 7-13, 1,1′-Butane-1,4-diylbis {3-[2-(2-(2-{2-[(5-{3-[(4S)-6,8-dichloro-2-methyl-1,2,3,4-tetrahydroisoquinolin-4-yl]phenyl}pyridazin-3-yl)amino]ethoxy}ethoxy)ethyl]urea}tetrahydrochloride], the IC50 is 12 nM.

Take `CN1Cc2c(Cl)cc(Cl)cc2[C@H](c2cccc(-c3cc(NCCOCCOCCNC(=O)Nc4ccc(NC(=O)NCCOCCOCCNc5cc(-c6cccc([C@@H]7CN(C)Cc8c(Cl)cc(Cl)cc87)c6)ncn5)cc4)ncn3)c2)C1` [Example 7-14, 1,1′-Benzene-1,4-diylbis {3-[2-(2-{2-[(6-{3-[(4S)-6,8-dichloro-2-methyl-1,2,3,4-tetrahydroisoquinolin-4-yl]phenyl}pyrimidin-4-yl)amino]ethoxy}ethoxy)ethyl]urea} trifluoroacetate]: the IC50 stood at 13.9 nM.

`CN1Cc2c(Cl)cc(Cl)cc2[C@H](c2cccc(-c3ccc(NCCOCCOCCOCCNC(=O)NCCCCNC(=O)NCCOCCOCCOCCNc4ccc(-c5cccc([C@@H]6CN(C)Cc7c(Cl)cc(Cl)cc76)c5)cn4)nc3)c2)C1` [Example 7-17, 1,1′-Butane-1,4-diylbis(3-{2-[2-(2-{2-[(5-{3-[(4S)-6,8-dichloro-2-methyl-1,2,3,4-tetrahydroisoquinolin-4-yl]phenyl}pyridin-2-yl)amino]ethoxy}ethoxy)ethoxy]ethyl}urea) hydrochloride]: the IC50 was 4.4 nM.

For the compound `CN1Cc2c(Cl)cc(Cl)cc2[C@H](c2cccc(-c3cncc(NCCOCCOCCNC(=O)NCCCCNC(=O)NCCOCCOCCNc4cncc(-c5cccc([C@@H]6CN(C)Cc7c(Cl)cc(Cl)cc76)c5)n4)n3)c2)C1` [Example 7-20, 1,1′-Butane-1,4-diylbis{3-[2-(2-{2-[(6-{3-[(4S)-6,8-dichloro-2-methyl-1,2,3,4-tetrahydroisoquinolin-4-yl]phenyl}pyrazin-2-yl)amino]ethoxy}ethoxy)ethyl]urea}pentahydrochloride], the IC50 stood at 7.5 nM.

Turning to `CN1Cc2c(Cl)cc(Cl)cc2[C@H](c2cccc(-c3nnc(CCOCCOCCNC(=O)NCCCCNC(=O)NCCOCCOCCc4nnc(-c5cccc([C@@H]6CN(C)Cc7c(Cl)cc(Cl)cc76)c5)[nH]4)[nH]3)c2)C1` [Example 7-21, 1,1′-Butane-1,4-diylbis[3-(2-{2-[2-(5-{3-[(4S)-6,8-dichloro-2-methyl-1,2,3,4-tetrahydroisoquinolin-4-yl]phenyl}-4H-1,2,4-triazol-3-yl)ethoxy]ethoxy}ethyl)urea]diformate], the IC50 was 3.8 nM.

For the compound `CN1Cc2c(Cl)cc(Cl)cc2[C@H](c2cccc(-c3nnc(CCOCCOCCOCCNC(=O)NCCCCNC(=O)NCCOCCOCCOCCc4nnc(-c5cccc([C@@H]6CN(C)Cc7c(Cl)cc(Cl)cc76)c5)[nH]4)[nH]3)c2)C1` [Example 7-22, 1,1′-Butane-1,4-diylbis {3-[2-(2-{2-[2-(5-{3-[(4S)-6,8-dichloro-2-methyl-1,2,3,4-tetrahydroisoquinolin-4-yl]phenyl}-4H-1,2,4-triazol-3-yl)ethoxy]ethoxy}ethoxy)ethyl]urea} diformate], the IC50 stood at 5.7 nM.

As for `CN1Cc2c(Cl)cc(Cl)cc2[C@H](c2cccc(-c3nnc(CCOCCOCCNC(=O)NCCCCNC(=O)NCCOCCOCCc4nnc(-c5cccc([C@@H]6CN(C)Cc7c(Cl)cc(Cl)cc76)c5)o4)o3)c2)C1` [Example 7-23, 1,1′-Butane-1,4-diylbis[3-(2-{2-[2-(5-{3-[(4S)-6,8-dichloro-2-methyl-1,2,3,4-tetrahydroisoquinolin-4-yl]phenyl}-1,3,4-oxadiazol-2-yl)ethoxy]ethoxy}ethyl)urea]tetraformate], the IC50 was determined as 5.5 nM.

In the case of `CN1Cc2c(Cl)cc(Cl)cc2[C@H](c2cccc(-c3cc(OCCOCCOCCOCCNC(=O)Nc4ccc(NC(=O)NCCOCCOCCOCCOc5cc(-c6cccc([C@@H]7CN(C)Cc8c(Cl)cc(Cl)cc87)c6)ncn5)cc4)ncn3)c2)C1` [Example 7-25, 1,1′-Benzene-1,4-diylbis(3-{2-[2-(2-{2-[(6-{3-[(4S)-6,8-dichloro-2-methyl-1,2,3,4-tetrahydroisoquinolin-4-yl]phenyl}pyrimidin-4-yl)oxy]ethoxy}ethoxy)ethoxy]ethyl}urea) hydrochloride], the IC50 stood at 13.6 nM.

Regarding `CN1Cc2c(Cl)cc(Cl)cc2[C@H](c2cccc(-c3cn(CCOCCOCCOCCNC(=O)NCCOCCOCCNC(=O)NCCOCCOCCOCCn4cc(-c5cccc([C@@H]6CN(C)Cc7c(Cl)cc(Cl)cc76)c5)nn4)nn3)c2)C1` [Example 7-26, 1,1′-[Ethane-1,2-diylbis(oxyethane-2,1-diyl)]bis {3-[2-(2-{2-[2-(4-{3-[(4S)-6,8-dichloro-2-methyl-1,2,3,4-tetrahydroisoquinolin-4-yl]phenyl}-1H-1,2,3-triazol-1-yl)ethoxy]ethoxy}ethoxy)ethyl]urea}hydrochloride], the half-inhibitory concentration (IC50) came to 5.2 nM.

For `CN1Cc2c(Cl)cc(Cl)cc2[C@H](c2cccc(-c3cn(CCOCCOCCOCCNC(=O)NCCCCCCNC(=O)NCCOCCOCCOCCn4cc(-c5cccc([C@@H]6CN(C)Cc7c(Cl)cc(Cl)cc76)c5)nn4)nn3)c2)C1` [Example 7-27, 1,1′-Hexane-1,6-diylbis {3-[2-(2-{2-[2-(4-{3-[(4S)-6,8-dichloro-2-methyl-1,2,3,4-tetrahydroisoquinolin-4-yl]phenyl}-1H-1,2,3-triazol-1-yl)ethoxy]ethoxy}ethoxy)ethyl]urea}hydrochloride], the IC50 is 11.3 nM.

Regarding `CN1Cc2c(Cl)cc(Cl)cc2[C@H](c2cccc(-c3cn(CCOCCOCCOCCNC(=O)NCCCCCCCCNC(=O)NCCOCCOCCOCCn4cc(-c5cccc([C@@H]6CN(C)Cc7c(Cl)cc(Cl)cc76)c5)nn4)nn3)c2)C1` [Example 7-28, 1,1′-Octane-1,8-diylbis {3-[2-(2-{2-[2-(4-{3-[(4S)-6,8-dichloro-2-methyl-1,2,3,4-tetrahydroisoquinolin-4-yl]phenyl}-1H-1,2,3-triazol-1-yl)ethoxy]ethoxy}ethoxy)ethyl]urea}hydrochloride], the IC50 was 7.3 nM.

In general, IC50 refers to the concentration that inhibits the measured activity by half.
